Measurements: patent publication US11713307B2, “Heteroaryl-biphenyl amides for the treatment of PD-L1 diseases” (CHEMOCENTRYX, INC., priority 2019, dated 2023)

Biological target: human PD-L1 (Homo sapiens (Human), UniProt Q9NZQ7)
Experiment: Enzyme-Linked Immunosorbent Assay—ELISA (PD-1/PD-L1 binding)
Conditions: plates coated with human PD-L1; Human PD-1 and biotin added; absorbance at 450 nm
Description: 96 Well plates were coated with 1 μg/mL of human PD-L1 (obtained from R&D) in PBS overnight at 4° C. The wells were then blocked with 2% BSA in PBS (W/V) with 0.05% TWEEN-20 for 1 hour at 37° C. The plates were washed 3 times with PBS/0.05% TWEEN-20 and the compounds were serial diluted (1:5) in dilution medium and added to the ELISA plates. Human PD-1 and biotin 0.3 μg/mL (ACRO Biosystems) were added and incubated for 1 hour at 37° C. then washed 3 times with PBS/0.05% TWEEN-20. A second block was performed with 2% BSA in PBS (W/V)/0.05% TWEEN-20 for 10 min at 37° C. and the plates were washed 3 times with PBS/0.05% TWEEN-20. Streptavidin-HRP was added for 1 hour at 37° C. then the plates were washed 3 times with PBS/0.05% TWEEN-20. TMB substrate was added and reacted for 20 min at 37° C. A stop solution (2 N aqueous H2SO4) was added. The absorbance was read at 450 nm using a micro-plate spectrophotometer. The results are shown in Table 1: IC50 values are provided as follows: from 1000 to 10,000 nM (+); from 10 up to 1000 nM (++); less than 10 nM (+++).

human PD-L1, sequence (Q9NZQ7 19-239): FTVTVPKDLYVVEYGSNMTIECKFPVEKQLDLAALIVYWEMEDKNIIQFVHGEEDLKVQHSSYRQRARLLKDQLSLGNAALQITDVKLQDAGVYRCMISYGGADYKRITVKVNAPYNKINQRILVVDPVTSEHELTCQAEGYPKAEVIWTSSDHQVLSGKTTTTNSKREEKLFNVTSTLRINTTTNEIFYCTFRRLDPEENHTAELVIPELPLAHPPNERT

Structure (SMILES) | IC50
Cc1c(NC(=O)c2cn(C)c(=O)n(C)c2=O)cccc1-c1cccc(-c2ccc(CNC[C@@H]3CCC(=O)N3)c(C(F)(F)F)n2)c1Cl [Compound 1.045] | < 10 nM
CCc1nc(-c2cccc(-c3cccc(NC(=O)c4cn(C)c(=O)n(C)c4=O)c3Cl)c2Cl)ccc1CN1CC(C(=O)O)C1 [Compound 1.071] | < 10 nM
COc1cc(-c2cccc(-c3cccc(NC(=O)c4cn(C)c(=O)n(C)c4=O)c3Cl)c2Cl)ncc1CN1CC(C(=O)O)C1 [Compound 1.086] | < 10 nM
COc1nc(-c2cccc(-c3cccc(NC(=O)c4cn(C)c(=O)n(C)c4=O)c3Cl)c2Cl)cnc1CN[C@@H]1CNC(=O)C1 [Compound 1.002] | < 10 nM
COc1nc(-c2cccc(-c3cccc(NC(=O)c4cn(C)c(=O)n(C)c4=O)c3C)c2Cl)ccc1CNC[C@@H](O)CO [Compound 1.044] | < 10 nM
